Patent US20240066027A1 (DOMAIN THERAPEUTICS, priority 2020, published 2024)

The compounds below were run against T1, human PAR-2 (hPAR-2) receptor expressed in HEK-293 T cells in an endogenous manner (Homo sapiens, UniProt P55085) (assay: In vitro human PAR-2 functional antagonist activity using calcium assays (Fluo4AM, FLIPR Tetra)). Settings: HEK-293 T cells stimulated by an EC80 of the 2-Furoyl-LIGRLO-NH2 peptide after 10 min incubation with compound; 20 concentrations, duplicate, two independent experiments.
T1 construct: human PAR-2 (hPAR-2) receptor expressed in HEK-293 T cells in an endogenous manner; endogenous in cells; host or cells: HEK-293 T cells
T1 sequence (P55085 26-397): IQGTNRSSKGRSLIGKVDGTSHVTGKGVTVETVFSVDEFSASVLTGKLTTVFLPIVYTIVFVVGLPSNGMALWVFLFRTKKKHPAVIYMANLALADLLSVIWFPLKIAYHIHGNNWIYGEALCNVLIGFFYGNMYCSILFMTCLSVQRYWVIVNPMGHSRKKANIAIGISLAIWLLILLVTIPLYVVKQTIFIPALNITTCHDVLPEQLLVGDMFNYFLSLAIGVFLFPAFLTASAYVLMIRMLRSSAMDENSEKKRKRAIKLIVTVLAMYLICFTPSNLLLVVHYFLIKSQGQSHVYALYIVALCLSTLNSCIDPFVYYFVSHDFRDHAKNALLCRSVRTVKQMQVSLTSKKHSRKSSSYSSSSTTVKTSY
Type: cell-based
Outline: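 Antagonist activity was taken as the decrease in the calcium response to an EC80 of 2-Furoyl-LIGRLO-NH2, measured over 5 min. The agonist was added after a 10 min compound-alone step on the same plate. The HEK-293 T cells express PAR-2 endogenously and were loaded with 1 μM Fluo4AM. Signals were referenced to buffer and EC80-alone controls.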

| Structure (SMILES) | IC50 |
| --- | --- |
| CN(C)C(=O)c1ccc(N2CCN(C(=O)c3ccc4c(-c5ccc(Cl)c(F)c5)cn(C(C)(C)C)c4n3)C(C)(C)C2)nc1 [Example 139, 6-(4-(1-(tert-butyl)-3-(4-chloro-3-fluorophenyl)-1H-pyrrolo[2,3-b]pyridine-6-carbonyl)-3,3-dimethylpiperazin-1-yl)-N,N-dimethylnicotinamide] | < 20 nM |
| COC[C@@H](C)n1cc(-c2ccc(Cl)c(F)c2)c2ccc(C(=O)N3CCN(c4cc(C)c(C(=O)O)c(C)n4)CC3(C)C)nc21 [Example 140, (R)-6-(4-(3-(4-chloro-3-fluorophenyl)-1-(1-methoxypropan-2-yl)-1H-pyrrolo[2,3-b]pyridine-6-carbonyl)-3,3-dimethylpiperazin-1-yl)-2,4-dimethyinicotinic acid] | < 20 nM |
| Cc1cc(N2CCN(C(=O)c3ccc4c(-c5ccc(F)c(F)c5)cn(CC(C)C)c4n3)C(C)(C)C2)nc(C)c1C(=O)O [Example 141, 6-(4-(3-(3,4-difluorophenyl)-1-isobutyl-1H-pyrrolo[2,3-b]pyridine-6-carbonyl)-3,3-dimethylpiperazin-1-yl)-2,4-dimethylnicotinic acid] | < 20 nM |
| Cc1ccc(-c2cn(CC(C)C)c3nc(C(=O)N4CCN(c5cc(C)c(C(=O)O)c(C)n5)CC4(C)C)ccc23)cc1F [Example 142, 6-(4-(3-(3-fluoro-4-methylphenyl)-1-isobutyl-1H-pyrrolo[2,3-b]pyridine-6-carbonyl)-3,3-dimethylpiperazin-1-yl)-2,4-dimethylnicotinic acid] | < 20 nM |
| Cc1cc(N2CCN(C(=O)c3ccc4c(-c5cc(F)c(F)c(F)c5)cn(CC(C)C)c4n3)C(C)(C)C2)nc(C)c1C(=O)O [Example 143, 6-(4-(1-isobutyl-3-(3,4,5-trifluorophenyl)-1H-pyrrolo[2,3-b]pyridine-6-carbonyl)-3,3-dimethylpiperazin-1-yl)-2,4-dimethylnicotinic acid] | < 20 nM |
| Cc1cc(N2CCN(C(=O)c3ccc4c(-c5ccc(C(F)(F)F)c(F)c5)cn(CC(C)C)c4n3)C(C)(C)C2)nc(C)c1C(=O)O [Example 144, 6-(4-(3-(3-fluoro-4-(trifluoromethyl)phenyl)-1-isobutyl-1H-pyrrolo[2,3-b]pyridine-6-carbonyl)-3,3-dimethylpiperazin-1-yl)-2,4-dimethylnicotinic acid] | < 20 nM |
| COc1ccc(-c2cn(CC(C)C)c3nc(C(=O)N4CCNC(=O)C4(C)C)ccc23)cc1OC [Example 145, 4-(3-(3,4-dimethoxyphenyl)-1-isobutyl-1H-pyrrolo[2,3-b]pyridine-6-carbonyl)-3,3-dimethylpiperazin-2-one] | > 10000 nM |
| Cc1cc(N(C)C2CCN(C(=O)c3ccc4c(-c5ccc(Cl)c(F)c5)cn(C(C)(C)C)c4n3)CC2)nc(C)c1C(=O)O [Example 147, 6-((1-(1-(tert-butyl)-3-(4-chloro-3-fluorophenyl)-1H-pyrrolo[2,3-b]pyridine-6-carbonyl)piperidin-4-yl)(methyl)amino)-2,4-dimethyinicotinic acid] | 20 to 10000 nM |
| Cc1cc(N2C[C@@H]3C[C@H]2CN3C(=O)c2ccc3c(-c4ccc(Cl)c(F)c4)cn(C(C)(C)C)c3n2)nc(C)c1C(=O)O [Example 148, 6-((1S,4S)-5-(1-(tert-butyl)-3-(4-chloro-3-fluorophenyl)-1H-pyrrolo[2,3-b]pyridine-6-carbonyl)-2,5-diazabicyclo[2.2.1]heptan-2-yl)-2,4-dimethyinicotinic acid] | 20 to 10000 nM |
| Cc1cc(N2CCN(C(=O)c3ccc4c(-c5ccc(Cl)c(F)c5)cn(Cc5ccncc5)c4n3)C(C)(C)C2)nc(C)c1C(=O)O [Example 149, 6-(4-(3-(4-chloro-3-fluorophenyl)-1-(pyridin-4-ylmethyl)-1H-pyrrolo[2,3-b]pyridine-6-carbonyl)-3,3-dimethylpiperazin-1-yl)-2,4-dimethylnicotinic acid] | 20 to 10000 nM |
| COCC(C)(C)n1cc(-c2ccc(Cl)c(F)c2)c2ccc(C(=O)N3CCNC(=O)C3(C)C)nc21 [Example 151, 4-(3-(4-chloro-3-fluorophenyl)-1-(1-methoxy-2-methylpropan-2-yl)-1H-pyrrolo[2,3-b]pyridine-6-carbonyl)-3,3-dimethylpiperazin-2-one] | < 20 nM |
